Results on seven molecules are retold here after US20260317344A1, “EGFR INHIBITORS FOR TREATING DISEASE” (BLOSSOMHILL THERAPEUTICS, INC., priority 2023, published 2026).

pIC50: −log10 of the molar value.

By pIC50 is commonly meant the IC50 on a negative log10 scale, so that one unit is a factor of ten.

In test [1] the target is EGFR (D770_N771insNPG) (Homo sapiens, UniProt P00533, INS770NPG). Kind of test: HotSpot radiometric kinase assay, inhibition of EGFR (D770_N771insNPG) mutant. It counts as biochemical. The following applies: 33P ATP, room temperature, 120 m. In a few lines:
(§1)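 Kinase/substrate pairs in 20 mM HEPES pH 7.5, 10 mM MgCl2, 1 mM EGTA, 0.02% Brij35, 0.02 mg/ml BSA, 0.1 mM Na3VO4, 2 mM DTT, 1% DMSO, preincubated ~20 min with compound. Reaction started with ATP/33P-ATP ([…]), run 120 min at room temperature; phosphorylation read by P81 filter binding, IC50 from curve fits.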

For test [2], the system named is NCI-H1975 cells. Kind of test: 5-Day CellTiter Glo (CTG) cell proliferation assay, NCI-H1975. It counts as cell-based. The following applies: Homo sapiens; NCI-H1975 cells (L858R/T790M EGFR), 5-day CTG proliferation, 120 hours; read-out: H1975 IC50. The essentials:
(§2)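 Luminescent ATP signal (CellTiter-Glo 2.0) after 120 hours of compound exposure gave IC50 values. PC-9 and HCC827 harbour EGFR d746-750; NCI-H1975 harbours L858R/T790M.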
(In general: Cellular ATP, detected with luciferase, serves as a proxy for viable cell number.)

Test [3] concerns the target EGFR (L858R/T790M/C797S) (Homo sapiens, UniProt P00533, C797S/L858R/T790M). Kind of test: HotSpot radiometric kinase assay, inhibition of EGFR L858R/T790M/C797S mutant. It counts as biochemical. The following applies: 33P ATP, room temperature, 120 m. The essentials: as §1
The target of test [4] is EGFR (D746-750/C797S) (Homo sapiens, UniProt P00533, C797S/DEL746-750). The test is described as follows: HotSpot radiometric kinase assay, inhibition of EGFR 746-750/C797S mutant. It counts as biochemical. The following applies: 33P ATP, room temperature, 120 m. In a few lines:
as §1

For test [5], the target named is T1, pEGFR, NCI-H1975 cells (L858R/T790M EGFR) (Homo sapiens, UniProt P00533, L858R/T790M).
T1 construct: pEGFR (Tyr1068) TR-FRET
T1 sequence (P00533 25-1210 T790M/L858R): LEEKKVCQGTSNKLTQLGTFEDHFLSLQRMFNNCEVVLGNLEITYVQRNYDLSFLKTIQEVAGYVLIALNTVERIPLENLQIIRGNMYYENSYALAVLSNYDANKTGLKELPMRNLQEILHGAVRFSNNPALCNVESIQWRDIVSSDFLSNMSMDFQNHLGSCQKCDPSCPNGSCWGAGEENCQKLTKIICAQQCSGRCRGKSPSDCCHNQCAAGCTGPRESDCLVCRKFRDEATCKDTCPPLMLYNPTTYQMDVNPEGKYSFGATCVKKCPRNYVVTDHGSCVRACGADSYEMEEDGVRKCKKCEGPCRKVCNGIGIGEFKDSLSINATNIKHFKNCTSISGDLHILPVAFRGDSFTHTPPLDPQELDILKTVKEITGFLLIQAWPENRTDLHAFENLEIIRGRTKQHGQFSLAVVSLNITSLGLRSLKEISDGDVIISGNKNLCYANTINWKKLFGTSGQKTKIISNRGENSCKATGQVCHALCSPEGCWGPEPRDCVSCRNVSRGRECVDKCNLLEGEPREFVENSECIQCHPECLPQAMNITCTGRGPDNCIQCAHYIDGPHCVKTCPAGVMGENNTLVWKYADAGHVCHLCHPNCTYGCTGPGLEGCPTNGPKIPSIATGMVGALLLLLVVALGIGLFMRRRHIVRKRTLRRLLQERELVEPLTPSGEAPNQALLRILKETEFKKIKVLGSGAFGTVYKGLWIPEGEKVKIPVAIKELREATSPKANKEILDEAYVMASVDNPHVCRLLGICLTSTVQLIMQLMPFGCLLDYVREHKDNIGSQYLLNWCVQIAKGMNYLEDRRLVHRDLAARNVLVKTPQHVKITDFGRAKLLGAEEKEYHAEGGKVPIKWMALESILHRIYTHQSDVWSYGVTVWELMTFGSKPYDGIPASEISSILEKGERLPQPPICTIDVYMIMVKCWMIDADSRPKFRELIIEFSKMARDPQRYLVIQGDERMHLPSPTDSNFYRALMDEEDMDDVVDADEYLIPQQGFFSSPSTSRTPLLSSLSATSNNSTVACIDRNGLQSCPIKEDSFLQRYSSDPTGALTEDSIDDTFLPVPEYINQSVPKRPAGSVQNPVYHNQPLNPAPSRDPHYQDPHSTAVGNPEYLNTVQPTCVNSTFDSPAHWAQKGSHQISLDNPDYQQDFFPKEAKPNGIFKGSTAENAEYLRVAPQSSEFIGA
The test is described as follows: Cellular EGFR phosphorylation assay (LANCE Ultra TR-FRET) in NCI-H1975 cells. It counts as cell-based. The conditions noted are these: 4 hours at 37° C., read-out: H1975 pEGFR IC50. In a few lines: (§3)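 Phospho-EGFR (Tyr1068) measured by TR-FRET in lysates after 4 h compound exposure at 37° C (9 doses, 3-fold steps). A431 cells, seeded at 30 thousand per well, received 40 ng/mL EGF for the last 10 min; PC-9 and NCI-H1975 seeded at 50 thousand per well, unstimulated. IC50 values reported.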
(TR-FRET usually uses a lanthanide donor and a delayed reading to cut background.)

Test [6] has as its system BaF3 cells with engineered EGFR L858R/T790M/C797S. Kind of test: 3-Day CellTiter Glo (CTG) cell proliferation assay, BaF3 EGFR L858R/T790M/C797S. The test is classed as cell-based. The conditions noted are these: Mus musculus, 3-day CTG proliferation, 72 hours. In a few lines:
(§4)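 Growth inhibition in transgene-bearing BaF3 lines was scored after three days of compound treatment by CellTiter-Glo 2.0 ATP luminescence, yielding IC50 values.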

Test [7] addresses EGFR (D746-750) (Homo sapiens, UniProt P00533, DEL746-750). The test is described as follows: HotSpot radiometric kinase assay, inhibition of EGFR 746-750 mutant. The following applies: 33P ATP, room temperature, 120 m. The test is classed as biochemical. The essentials: as §1
Test [8] relates to BaF3 cells with engineered EGFR d746-750/T790M. Kind of test: 3-Day CellTiter Glo (CTG) cell proliferation assay, BaF3 EGFR d746-750/T790M. It counts as cell-based. The conditions noted are these: Mus musculus; BaF3 EGFR d746-750/T790M cells, 3-day CTG proliferation, 72 hours. In a few lines: as §4
In test [9] the target is T2, pEGFR, PC-9 cells (d746-750 EGFR) (Homo sapiens, UniProt P00533, DEL746-750).
T2 construct: pEGFR (Tyr1068) TR-FRET
Kind of test: Cellular EGFR phosphorylation assay (LANCE Ultra TR-FRET) in PC-9 cells. The test is classed as cell-based. The conditions noted are these: 4 hours at 37° C., read-out: PC-9 pEGFR IC50. In a few lines:
as §3

In test [10] the test system is HCC827 cells. Kind of test: 5-Day CellTiter Glo (CTG) cell proliferation assay, HCC827. The test is classed as cell-based. The following applies: Homo sapiens; HCC827 cells (d746-750 EGFR), 5-day CTG proliferation, 120 hours; read-out: HCC827 IC50. In a few lines: as §2
The target of test [11] is T3, pEGFR, A431 cells (wildtype EGFR) (Homo sapiens, UniProt P00533).
T3 construct: pEGFR (Tyr1068) TR-FRET
T3 sequence (P00533 25-1210): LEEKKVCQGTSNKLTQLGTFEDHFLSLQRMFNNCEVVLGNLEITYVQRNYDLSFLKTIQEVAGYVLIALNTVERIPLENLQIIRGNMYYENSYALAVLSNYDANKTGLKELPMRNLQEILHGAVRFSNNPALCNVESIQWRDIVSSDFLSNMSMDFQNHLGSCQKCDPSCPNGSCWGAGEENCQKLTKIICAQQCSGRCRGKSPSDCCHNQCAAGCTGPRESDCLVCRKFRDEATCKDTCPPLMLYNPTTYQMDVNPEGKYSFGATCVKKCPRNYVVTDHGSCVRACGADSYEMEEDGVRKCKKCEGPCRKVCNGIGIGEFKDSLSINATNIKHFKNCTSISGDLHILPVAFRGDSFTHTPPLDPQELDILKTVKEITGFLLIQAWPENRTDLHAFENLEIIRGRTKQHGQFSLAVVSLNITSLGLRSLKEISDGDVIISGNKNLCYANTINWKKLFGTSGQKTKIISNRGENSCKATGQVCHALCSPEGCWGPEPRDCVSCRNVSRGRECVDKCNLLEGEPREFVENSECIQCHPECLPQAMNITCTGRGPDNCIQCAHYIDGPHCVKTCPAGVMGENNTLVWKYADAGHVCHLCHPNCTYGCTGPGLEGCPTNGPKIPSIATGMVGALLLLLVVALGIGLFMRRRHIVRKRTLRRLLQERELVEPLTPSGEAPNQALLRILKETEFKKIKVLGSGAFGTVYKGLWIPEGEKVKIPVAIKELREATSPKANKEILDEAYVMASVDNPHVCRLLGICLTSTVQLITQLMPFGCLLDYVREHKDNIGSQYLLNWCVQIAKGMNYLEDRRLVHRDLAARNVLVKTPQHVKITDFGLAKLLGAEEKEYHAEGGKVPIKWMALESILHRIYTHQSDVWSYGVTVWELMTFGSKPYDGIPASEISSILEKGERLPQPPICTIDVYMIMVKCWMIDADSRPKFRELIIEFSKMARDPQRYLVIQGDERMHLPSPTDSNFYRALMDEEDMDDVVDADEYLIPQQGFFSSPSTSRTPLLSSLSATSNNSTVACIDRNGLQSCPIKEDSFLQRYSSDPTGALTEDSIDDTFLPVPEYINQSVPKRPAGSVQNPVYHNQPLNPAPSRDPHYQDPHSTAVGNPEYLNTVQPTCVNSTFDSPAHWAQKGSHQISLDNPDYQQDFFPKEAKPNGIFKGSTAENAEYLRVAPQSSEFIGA
The test is described as follows: Cellular EGFR phosphorylation assay (LANCE Ultra TR-FRET) in A431 cells. The test is classed as cell-based. The conditions noted are these: 4 hours at 37° C., 40 ng/mL EGF for the final 10 minutes, read-out: A431 pEGFR IC50. The essentials:
as §3

Test [12] deals with PC-9 cells. Kind of test: 5-Day CellTiter Glo (CTG) cell proliferation assay, PC-9. It counts as cell-based. The following applies: Homo sapiens; PC-9 cells (d746-750 EGFR), 5-day CTG proliferation, 120 hours; read-out: PC-9 IC50. In a few lines:
as §2

The test system of test [13] is BaF3 cells with engineered EGFR L858R/C797S. Kind of test: 3-Day CellTiter Glo (CTG) cell proliferation assay, BaF3 EGFR L858R/C797S. The conditions noted are these: Mus musculus, 3-day CTG proliferation, 72 hours. The test is classed as cell-based. In a few lines:
as §4

EGFR (L858R/T790M/C797S), sequence (P00533 25-1210 T790M/C797S/L858R): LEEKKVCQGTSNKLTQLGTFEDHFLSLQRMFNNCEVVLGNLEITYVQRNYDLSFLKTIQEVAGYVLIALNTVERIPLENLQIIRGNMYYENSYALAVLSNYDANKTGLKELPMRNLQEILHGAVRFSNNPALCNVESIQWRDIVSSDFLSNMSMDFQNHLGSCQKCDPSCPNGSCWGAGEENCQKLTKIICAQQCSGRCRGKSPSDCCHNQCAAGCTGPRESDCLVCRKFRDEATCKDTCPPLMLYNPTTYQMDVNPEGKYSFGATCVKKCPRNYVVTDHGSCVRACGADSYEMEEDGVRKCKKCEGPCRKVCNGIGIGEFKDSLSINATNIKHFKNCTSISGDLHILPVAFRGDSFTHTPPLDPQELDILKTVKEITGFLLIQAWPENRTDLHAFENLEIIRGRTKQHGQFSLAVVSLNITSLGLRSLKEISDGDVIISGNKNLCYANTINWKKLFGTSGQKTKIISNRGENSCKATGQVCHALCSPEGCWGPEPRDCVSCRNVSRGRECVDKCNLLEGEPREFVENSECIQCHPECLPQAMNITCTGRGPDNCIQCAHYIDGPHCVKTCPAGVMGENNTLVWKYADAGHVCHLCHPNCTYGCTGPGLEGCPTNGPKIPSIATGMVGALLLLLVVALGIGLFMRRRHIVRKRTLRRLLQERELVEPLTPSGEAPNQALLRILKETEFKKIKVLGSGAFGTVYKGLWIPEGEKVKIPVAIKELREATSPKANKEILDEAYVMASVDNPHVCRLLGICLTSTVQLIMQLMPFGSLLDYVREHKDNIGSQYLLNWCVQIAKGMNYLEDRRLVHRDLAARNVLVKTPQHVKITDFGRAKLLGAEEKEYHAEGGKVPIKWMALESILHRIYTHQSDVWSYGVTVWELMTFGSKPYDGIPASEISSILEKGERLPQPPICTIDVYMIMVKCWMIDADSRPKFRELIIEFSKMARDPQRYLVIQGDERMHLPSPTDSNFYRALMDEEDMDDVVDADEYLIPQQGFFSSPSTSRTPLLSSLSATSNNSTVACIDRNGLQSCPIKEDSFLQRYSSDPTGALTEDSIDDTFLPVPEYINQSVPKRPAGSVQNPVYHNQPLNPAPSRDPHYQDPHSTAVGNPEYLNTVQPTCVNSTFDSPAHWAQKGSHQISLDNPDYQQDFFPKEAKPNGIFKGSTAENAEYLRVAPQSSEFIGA
EGFR (D770_N771insNPG), sequence (P00533 with tags, fused parts or gaps INS770NPG limits assumed): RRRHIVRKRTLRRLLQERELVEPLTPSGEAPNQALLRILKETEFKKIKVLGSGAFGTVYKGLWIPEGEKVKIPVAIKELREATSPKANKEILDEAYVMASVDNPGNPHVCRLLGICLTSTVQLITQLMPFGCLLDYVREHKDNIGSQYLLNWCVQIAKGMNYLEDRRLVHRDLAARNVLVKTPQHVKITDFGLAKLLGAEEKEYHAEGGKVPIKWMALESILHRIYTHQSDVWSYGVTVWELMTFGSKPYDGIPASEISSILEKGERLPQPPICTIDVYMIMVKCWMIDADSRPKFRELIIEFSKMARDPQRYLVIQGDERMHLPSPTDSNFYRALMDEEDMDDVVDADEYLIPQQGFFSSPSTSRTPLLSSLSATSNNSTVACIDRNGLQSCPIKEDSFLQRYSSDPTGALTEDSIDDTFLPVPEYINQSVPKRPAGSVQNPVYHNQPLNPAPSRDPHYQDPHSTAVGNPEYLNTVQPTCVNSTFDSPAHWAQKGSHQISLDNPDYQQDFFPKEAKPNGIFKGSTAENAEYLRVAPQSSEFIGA

Regarding `CCOc1nn([C@@H](C)CO)c2c1/C=C/c1n[nH]c3c(C)nc(cc13)-c1cnn(C)c1O[C@@H](C)CN(C)C2` [Ex. 45, (2S)-2-[(10S,17E)-16-ethoxy-8,10,12,20-tetramethyl-2,8,10,11,12,13-hexahydro-14H-5,3-(azenometheno)tripyrazolo[3,4-f:3′,4′-j:4″,3″-n][1,4]oxazacyclopentadecin-14-yl]propan-1-ol], the pIC50 in test [1] is 9.16; in test [2], 8.96; in [3] it was 9.28; in test [4] it was 9.02; in test [5], 8.91; in [6], 9.33. Besides, the pIC50 in test [7] is 9.55; in test [8], 8.98; in test [9] it was 8.67; in test [10], 8.95; in test [11], 7.92; in test [12] it was 8.48. Further, the negative-log IC50 (pIC50) in test [13] was 9.92.

With `Cc1nn(C)c2c1-c1cc3c(n[nH]c3cn1)/C=C/c1c(C#N)nn([C@@H](C)CO)c1CN(C)C[C@H](C)O2` [Ex. 48, (10S,17E)-14-[(2S)-1-hydroxypropan-2-yl]-6,8,10,12-tetramethyl-2,10,11,12,13,14-hexahydro-8H-5,3-(azenometheno)tripyrazolo[3,4-f:3′,4′-j:4″,3″-n∥1,4]oxazacyclopentadecine-16-carbonitrile], the pIC50 in test [1] is 9.64; in test [2] it was 7.25; in test [3], 9.43; in test [4], 9.20; in [5], 8.21; in test [6], 8.92. For the same molecule, the pIC50 in test [7] was 9.74; in test [8], 7.77; in test [9], 8.50; in [10] it was 8.68; in test [11] it was 7.43; in test [12], 7.75. Further, the negative-log IC50 (pIC50) in [13] was 9.80.

Take `Cc1nn(C)c2c1-c1cc3c(n[nH]c3cn1)/C=C/c1c(OCC#N)nn([C@@H](C)CO)c1CN(C)C[C@H](C)O2` [Ex. 53, {[(10S,17E)-14-[(2S)-1-hydroxypropan-2-yl]-6,8,10,12-tetramethyl-2,10,11,12,13,14-hexahydro-8H-5,3-(azenometheno)tripyrazolo[3,4-f:3′,4′-j:4″,3″-n][1,4]oxazacyclopentadecin-16-yl]oxy}acetonitrile]: the negative logarithm of the IC50 (pIC50) in test [1] was 9.35; in test [2] it was 7.80; in test [3], 9.17; in [4] it was 8.95; in test [5] it was 8.06; in [6], 8.80. Besides, the pIC50 in test [7] was 9.43; in [8], 8.37; in test [9] it was 8.59; in test [10], 8.96; in [11], 7.68; in test [12], 8.53. Also, the pIC50 in test [13] was 9.74.

Consider `CCOc1nn([C@@H](C)CO)c2c1/C=C/c1n[nH]c3cnc(cc13)-c1c(C)nn(C)c1O[C@@H](C)[C@H]1CCCN1C2` [Ex. 56, (2S)-2-[(8aR,9S,19E)-1-ethoxy-9,11,13-trimethyl-7,8,8a,9,11,17-hexahydro-6H-14,16-(azenometheno)tripyrazolo[3,4-f:3′,4′-j:4″,3″-n]pyrrolo[2,1-c][1,4]oxazacyclopentadecin-3(4H)-yl]propan-1-ol], for which the pIC50 is 9.17 in [1]; 9.04 in test [2]; 9.01 in test [3]; 8.95 in [4]; 8.90 in test [5]; 9.21 in test [6]. In addition, the pIC50 in test [7] is 9.35; in test [8], 9.32; in test [9], 9.09; in test [10], 9.55; in [11] it was 8.08; in test [12] it was 9.49. In test [13], the negative logarithm of the IC50 (pIC50) was 10.30.

Consider `Cc1nn([C@@H](C)CO)c2c1/C=C/c1n[nH]c3c(C)nc(cc13)-c1c(C)nn(C)c1O[C@@H](C)CN(C)C2` [Ex. 57, (2S)-2-[(10S,17E)-6,8,10,12,16,20-hexamethyl-2,8,10,11,12,13-hexahydro-14H-5,3-(azenometheno)tripyrazolo[3,4-f:3′,4′-j:4″,3″-n][1,4]oxazacyclopentadecin-14-yl]propan-1-ol], for which the negative-log IC50 (pIC50) in test [1] was 8.32; in [2], 7.17; in [3] it was 9.07; in test [4], 8.86; in test [5], 7.98; in [6] it was 8.75. Also, the pIC50 is 9.10 in test [7]; 7.21 in [8]; 7.95 in [9]; 8.07 in test [10]; 7.58 in test [11]; 7.66 in test [12]. In addition, in test [13], the pIC50 is 9.16.

Take `CCOc1nn([C@@H](C)CO)c2c1/C=C/c1n[nH]c3cnc(cc13)-c1c(C)nn(C)c1OCCN(C)C2` [Ex. 59, (2S)-2-[(17E)-16-ethoxy-6,8,12-trimethyl-2,8,10,11,12,13-hexahydro-14H-5,3-(azenometheno)tripyrazolo[3,4-f:3′,4′-j:4″,3″-n][1,4]oxazacyclopentadecin-14-yl]propan-1-ol]: the pIC50 in test [1] was 8.95; in [2], 7.80; in test [3], 9.00; in [4], 8.88; in test [5], 8.84; in test [6], 9.04. For the same molecule, the pIC50 is 9.43 in test [7]; 8.44 in test [8]; 8.71 in test [9]; 9.03 in test [10]; 8.28 in test [11]; 8.49 in test [12]. Moreover, the pIC50 in [13] is 9.74.

For the molecule `CCOc1nn(CCO)c2c1/C=C/c1n[nH]c3cnc(cc13)-c1c(CC)nn(C)c1O[C@@H](C)CN(CC)C2` [Ex. 74, 2-[(10S,17E)-16-ethoxy-6,12-diethyl-8,10-dimethyl-2,8,10,11,12,13-hexahydro-14H-5,3-(azenometheno)tripyrazolo[3,4-f:3′,4′-j:4″,3″-n][1,4]oxazacyclopentadecin-14-yl]ethan-1-ol], the pIC50 is 9.18 in test [1]; 7.10 in [2]; 8.82 in [3]; 8.74 in test [4]; 8.29 in test [5]; 8.87 in test [6]. Moreover, the pIC50 is 9.26 in [7]; 8.18 in [8]; 8.81 in test [9]; 9.14 in [10]; 8.06 in test [11]; 9.17 in test [12]. In addition, in [13], the pIC50 is 10.40.
